Source: US20080181866A1, “Amido Anti-viral Compounds” (Genelabs Technologies, Inc., priority 2006, published 2008)

Test system: HCV replication
Test: HCV replicon assay (luciferase) in ET (Huh-lucubineo-ET) cell line
Format: cell-based
Settings: Hepatitis C virus, tested at 5 μM; ET replicon cells; luciferase activity measured 48-72 hours later; relative to no compound control
Description: A cell line, ET (Huh-lucubineo-ET) was used for screening of compounds of the present invention for inhibiting HCV replication. The ET cell line was stably transfected with RNA transcripts harboring a I389luc-ubi-neo/NS3-3′/ET; replicon with firefly luciferase-ubiquitin-neomycin phosphotransferase fusion protein and EMCV-IRES driven NS3-5B polyprotein containing the cell culture adaptive mutations (E1202G; T12801; K1846T) (Krieger at al, 2001 and unpublished). The ET cells were grown in DMEM (Dulbeco's Modified Eagle's Medium), supplemented with 10% fetal calf serum, 2 mM Glutamine, Penicillin (100 IU/mL)/Streptomycin (100 μg/mL), 1× nonessential amino acids, and 250 μg/mL G418 (“Geneticin”). They were all available through Life Technologies (Bethesda, Md.). The cells were plated at 0.5-1.0×10^4 cells/well in the 96 well plates and incubated for 24 hrs before adding testing compounds. Then the compounds were added to the cells to achieve a final concentration of 0.1 nM to 50 μM and a final DMSO concentration of 0.5%. Luciferase activity were measured 48-72 hours later by adding a lysis buffer and the substrate (Catalog number Glo-lysis buffer E2661 and Bright-Glo luciferase system E2620 Promega, Madison, Wis.). Cells should not be too confluent during the assay. Percent inhibition of replication was plotted relative to no compound control. Under the same condition, cytotoxicity of the compounds was determined using cell proliferation reagent, WST-1 (Roche, Germany). The compounds showing antiviral activities, but no significant cytotoxicities were chosen to determine EC50 and TC50. For these determinations, a 10 point 2-fold serial dilution for each compound was used, which spans a concentration range of 1000 fold. EC50 and similarly TC50 values were calculated by fitting % inhibition at each concentration to the following equation:
% inhibition=100%/[(IC50/[I])^b+1]
where b is Hill's coefficient.
In some preferred embodiments compounds of Formula I will have a % inhibition of at least 20% when tested at 5 μM. In other embodiments the compounds of Formula I will have a % inhibition of at least 50% when tested at 5 μM.

## O=C(NC1CC1)c1ccc(-c2csc(NC(=O)[C@@H]3CSC(c4cc[n+]([O-])cc4)N3C(=O)OCc3ccccc3)n2)cc1 (stereo partly drawn) [Compound 7050, (R)-4-[4-(4-Cyclopropylcarbamoyl-phenyl)-thiazol-2-ylcarbamoyl]-2-(1-oxy-pyridin-4-yl)-thiazolidine-3-carboxylic acid benzyl ester]
  inhibition at 5 µM: 100%

## CN(C)c1ncc(C2SC[C@@H](C(=O)Nc3nc(-c4ccc(C(=O)NC5CC5)cc4)cs3)N2C(=O)OCc2ccccc2)cn1 (stereo in doubt) [Compound 7131, 4-[4-(4-Cyclopropylcarbamoyl-phenyl)-thiazol-2-ylcarbamoyl]-2-(2-dimethylamino-pyrimidin-5-yl)-thiazolidine-3-carboxylic acid benzyl ester]
  inhibition at 5 µM: 100%

## CC(C)(C)OC(=O)N1CCCC(C2SC[C@@H](C(=O)Nc3nc(-c4ccc(C(=O)NC5CC5)cc4)cs3)N2C(=O)OCc2ccccc2)C1 (mixture of isomers) [Compound 7098, 3-{3-Benzyloxycarbonyl-4-[4-(4-cyclopropylcarbamoyl-phenyl)-thiazol-2-ylcarbamoyl]-thiazolidin-2-yl}-piperidine-1-carboxylic acid tert-butyl ester]
  inhibition at 5 µM: 99.9%

## CC1(c2ccncc2)SC[C@@H](C(=O)Nc2nc(-c3ccc(C(=O)NC4CC4)cc3)cs2)N1C(=O)OCc1ccccc1 (stereo in doubt) [Compound 7096, 4-[4-(4-Cyclopropylcarbamoyl-phenyl)-thiazol-2-ylcarbamoyl]-2-methyl-2-pyridin-4-yl-thiazolidine-3-carboxylic acid benzyl ester]
  inhibition at 5 µM: 99.9%

## O=C(NC1CC1)c1ccc(-c2csc(NC(=O)[C@@H]3CSC(CCCCC(=O)N4CCCCC4)N3C(=O)OCc3ccccc3)n2)cc1 (stereo in doubt) [Compound 7102, 4-[4-(4-Cyclopropylcarbamoyl-phenyl)-thiazol-2-ylcarbamoyl]-2-(5-oxo-5-piperidin-1-yl-pentyl)-thiazolidine-3-carboxylic acid benzyl ester]
  inhibition at 5 µM: 100%

## N#Cc1cccc(C2OC[C@@H](C(=O)Nc3nc(-c4ccc(C(=O)NC5CC5)cc4)cs3)N2C(=O)OCc2ccccc2)c1 (stereo in doubt) [Compound 7081, 2-(3-Cyano-phenyl)-4-[4-(4-cyclopropylcarbamoyl-phenyl)-thiazol-2-ylcarbamoyl]-oxazolidine-3-carboxylic acid benzyl ester]
  inhibition at 5 µM: 100%

## O=C(O)CCC1SC[C@@H](C(=O)Nc2nc(-c3ccc(C(=O)NC4CC4)cc3)cs2)N1C(=O)OCc1ccccc1 (mixture of isomers) [Compound 7065, 2-(2-Carboxy-ethyl)-4-[4-(4-cyclopropylcarbamoyl-phenyl)-thiazol-2-ylcarbamoyl]-thiazolidine-3-carboxylic acid benzyl ester]
  inhibition at 5 µM: 92%

## O=C(Cc1cccc(NC(=O)[C@@H]2CSC(c3ccncc3)N2C(=O)OCc2ccccc2)c1)Nc1ccccc1 (stereo partly shown) [Compound 7072, 4-(3-Phenylcarbamoylmethyl-phenylcarbamoyl)-2-pyridin-4-yl-thiazolidine-3-carboxylic acid benzyl ester]
  inhibition at 5 µM: 80.8%

## CC(C)(C)NC(=O)c1ccc(-c2csc(NC(=O)[C@@H]3CSC(c4ccncc4)N3C(=O)OCc3ccccc3)n2)cc1 (stereo partly shown) [Compound 7041, 4-[4-(4-tert-Butyl-carbamoyl-phenyl)-thiazol-2-ylcarbamoyl]-2-pyridin-4-yl-thiazolidine-3-carboxylic acid benzyl ester]
  inhibition at 5 µM: 100%

## O=C(NC1CC1)c1ccc(NC(=O)[C@@H]2CSC(C3CCOCC3)N2C(=O)OCc2ccccc2)cc1 (stereo partly shown) [Compound 7107, 4-(4-Cyclopropylcarbamoyl-phenylcarbamoyl)-2-(tetrahydro-pyran-4-yl)-thiazolidine-3-carboxylic acid benzyl ester]
  inhibition at 5 µM: 10%

## CC(C)(C)OC(=O)N1C(C2CCOCC2)SC[C@H]1C(=O)Nc1nc(-c2ccc(C(=O)NC3CC3)cc2)cs1 (stereo partly shown) [Compound 7090, 4-[4-(4-Cyclopropylcarbamoyl-phenyl)-thiazol-2-ylcarbamoyl]-2-(tetrahydropyran-4-yl)-thiazolidine-3-carboxylic acid tert-butyl ester]
  inhibition at 5 µM: 99.7%

## O=C(NC1CC1)c1ccc(-c2csc(NC(=O)[C@@H]3CS[C@@H](c4cccnc4)N3C(=O)OCc3ccccc3)n2)cc1 [Compound 7009, (2S,4R)-4-[4-(4-Cyclopropylcarbamoyl-phenyl)-thiazol-2-ylcarbamoyl]-2-pyridin-3-yl-thiazolidine-3-carboxylic acid benzyl ester]
  inhibition at 5 µM: 99.9%

## O=C(O)c1ccc(C2SC[C@@H](C(=O)Nc3nc(-c4ccc(C(=O)NC5CC5)cc4)cs3)N2C(=O)OCc2ccccc2)cc1 (mixture of isomers) [Compound 7014, (R)-2-(4-Carboxy-phenyl)-4-[4-(4-cyclopropylcarbamoyl-phenyl)-thiazol-2-ylcarbamoyl]-thiazolidine-3-carboxylic acid benzyl ester]
  inhibition at 5 µM: 97.7%

## O=C(Nc1ccc(CNS(=O)(=O)c2ccc(-c3ccccc3)cc2)cc1)[C@@H]1CSC(c2ccncc2)N1C(=O)OCc1ccccc1 (stereo in doubt) [Compound 7073, 4-{4-[(Biphenyl-4-sulfonylamino)-methyl]-phenylcarbamoyl}-2-pyridin-4-yl-thiazolidine-3-carboxylic acid benzyl ester]
  inhibition at 5 µM: 65.3%

## O=C(NC1CC1)c1ccc(-c2csc(NC(=O)[C@@H]3CSC(Cc4ccccc4)N3C(=O)OCc3ccccc3)n2)cc1 (stereo partly shown) [Compound 7101, 2-Benzyl-4-[4-(4-cyclopropylcarbamoyl-phenyl)-thiazol-2-ylcarbamoyl]-thiazolidine-3-carboxylic acid benzyl ester]
  inhibition at 5 µM: 98.4%

## COC(=O)CCCCC1SC[C@@H](C(=O)Nc2nc(-c3ccc(C(=O)NC4CC4)cc3)cs2)N1C(=O)OCc1ccccc1 (stereo partly shown) [Compound 7108, 4-[4-(4-Cyclopropylcarbamoyl-phenyl)-thiazol-2-ylcarbamoyl]-2-(4-methoxycarbonyl-butyl)-thiazolidine-3-carboxylic acid benzyl ester]
  inhibition at 5 µM: 99.9%

## O=C(NC1CC1)c1ccc(-c2csc(NC(=O)[C@@H]3CSC(c4ccc(CN5CCOCC5)cc4)N3C(=O)OCc3ccccc3)n2)cc1 (stereo partly shown) [Compound 7087, 4-[4-(4-Cyclopropylcarbamoyl-phenyl)-thiazol-2-ylcarbamoyl]-2-(4-morpholin-4-ylmethyl-phenyl)-thiazolidine-3-carboxylic acid benzyl ester]
  inhibition at 5 µM: 99.6%

## O=C(NC1CC1)c1ccc(-c2csc(NC(=O)[C@@H]3CSC(c4ccnc(Cl)c4)N3C(=O)OCc3ccccc3)n2)cc1 (mixture of isomers) [Compound 7029, (R)-2-(2-Chloro-pyridin-4-yl)-4-[4-(4-cyclopropylcarbamoyl-phenyl)-thiazol-2-ylcarbamoyl]-thiazolidine-3-carboxylic acid benzyl ester]
  inhibition at 5 µM: 99.8%

## O=C(NC1CC1)c1ccc(-c2csc(NC(=O)[C@@H]3CSC(c4ccc(F)cc4)N3C(=O)OCc3ccccc3)n2)cc1 (mixture of isomers) [Compound 7013, (R)-4-[4-(4-Cyclopropylcarbamoyl-phenyl)-thiazol-2-ylcarbamoyl]-2-(4-fluoro-phenyl)-thiazolidine-3-carboxylic acid benzyl ester]
  inhibition at 5 µM: 99.7%
